Patent US20260235581A1, “METHOD FOR THE SELECTION OF AN ECOBIOLOGICAL COMPOUND CAPABLE OF INCREASING THE SKIN TOLERANCE THRESHOLD” (NAOS INSTITUTE OF LIFE SCIENCE, priority 2023, published 2026)

How the values were obtained:
TAFA4 = TAFA4 synthesis in normal human fibroblast culture supernatant, dot blot; type: cell-based; conditions: for effect on the synthesis of TAFA4 (modulation of TAFA4 in the NHF supernatant): 72 hours of incubation, versus DMEM medium control set to 100%, valproic acid 0.025% and 0.05%, TGF-β 10 and 100 ng/ml, LPS 1 μg/ml; for doses with statistically significant induction of TAFA4 synthesis: NHF supernatant, 72 hours, Student test p<0.05, two doses tested
Procedure: Normal human fibroblasts (NHFs) have been used in this study (Lonza-Switzerland). The cells are seeded at 10,000 cells in 24-well plates in DMEM+1% Penicillin-streptomycin (P/S). After 72 hours of incubation at 37° C., 5% CO2, the supernatants and protein extracts (obtained from the cell layer) are recovered and stored at −80° C. Before assaying the TAFA4 protein, an evaluation of the toxicity of the compounds tested is performed using the MTT test. Only the concentrations which make it possible to obtain a viability greater than 80% are selected to be quantified by ELISA and dot blot. Dot blotting is an immunoenzymatic detection method for quantifying a protein in a sample after it has been deposited on a nitro-cellulose membrane in a well. Specific equipment (Biorad, France) is used with a nitrocellulose membrane. The device is subjected to a vacuum pressure which will make it possible to create the suctioning of the sample (supernatant or protein extract) and therefore, the binding of proteins to the nitrocellulose membrane. The equipment is placed at a height with respect to the vacuum pump, to respect the principle of gravity. The membrane is previously hydrated with 100 μl of TBS buffer (Tris base+NaCl diluted in water adjusted to pH 7.5) per well. This operation is repeated twice in order to optimise the hydration of the membrane for optimal binding of the proteins contained in the samples. The samples to be analysed (supernatants and protein extracts) and the different solutions of TAFA4 recombinant proteins at different concentrations of the TAFA4 standard range (0.78 to 100 ng/ml) are deposited in the plate (volume 100 μl/well used for the protein extracts and 500 μl/well-used for the supernatants) then the suction flow is activated. […] The presence of the TAFA4 protein on the membrane is conveyed by the formation of a grey to black spot depending on the intensity of the reaction and therefore on the quantity of protein. The membrane is read with the Fusion FX device (Vilber Lourmat) coupled with the VisionCapt software (Vilber Lourmat). The quantification of the TAFA4 protein in the samples tested is done with the VisionCapt software which makes it possible to measure the intensity of the various spots. The quantity of samples is then produced using the standard curve of the TAFA4 standard established with the recombinant protein The data have been collected from independent experiments performed in triplicate. Quantitative analyses are expressed in the form of mean±standard deviation. Statistical significance is determined by a Student test. […] The results are expressed as a percentage of TAFA4 expression by standardising the control to 100% (DMEM medium control). […]

[1] = tested on: pain/hypersensitivity felt locally in the skin; conditions: mice, injection subcutaneously or at the level of the neurons present in the bone marrow; cited from earlier work
KO mice for TAFA4 [2] = conditions: intradural injection; inflammatory pain agonist or partial lesion of the sciatic nerve; cited from earlier work
KO mice for TAFA4 [3] = conditions: UVC irradiation, intradermal injection post-irradiation; cited from earlier work

Row | Molecule | effect on the synthesis of TAFA4 (modulation of TAFA4 in the NHF supernatant) (TAFA4) | doses with statistically significant induction of TAFA4 synthesis (TAFA4) | duration of the reduction of pain/hypersensitivity post-injection [1] | effect on pain/hypersensitivity felt locally in the skin [1] | effect on increased hypersensitivity to pain of TAFA4 KO mice (KO mice for TAFA4 [2]) | effect on 35-day post-irradiation inflammation resolution defect (KO mice for TAFA4 [3])
1 | CCCC(CCC)C(=O)O [Valproic acid, reference compound] | induce the synthesis of TAFA4 in a dose-dependent manner | 1 out of 2 doses |  |  |  | 
2 | human TAFA4 protein: TAFA Chemokine Like Family Member 4 protein, a neurokine; injected recombinant protein in literature mouse studies |  |  | up to 4 hours | reduces the pain/hypersensitivity felt locally in the skin | compensates for the condition of TAFA4 KO mice | can be compensated
3 | TGF-β: TGF-β protein, 100-21, PEPROTECH | induce the synthesis of TAFA4 in a dose-dependent manner | 2 out of 2 doses |  |  |  | 
